The target in one experiment is T1, CYP125 (Mycobacterium tuberculosis, UniProt P9WPP1).
T1 sequence (P9WPP1 1-433): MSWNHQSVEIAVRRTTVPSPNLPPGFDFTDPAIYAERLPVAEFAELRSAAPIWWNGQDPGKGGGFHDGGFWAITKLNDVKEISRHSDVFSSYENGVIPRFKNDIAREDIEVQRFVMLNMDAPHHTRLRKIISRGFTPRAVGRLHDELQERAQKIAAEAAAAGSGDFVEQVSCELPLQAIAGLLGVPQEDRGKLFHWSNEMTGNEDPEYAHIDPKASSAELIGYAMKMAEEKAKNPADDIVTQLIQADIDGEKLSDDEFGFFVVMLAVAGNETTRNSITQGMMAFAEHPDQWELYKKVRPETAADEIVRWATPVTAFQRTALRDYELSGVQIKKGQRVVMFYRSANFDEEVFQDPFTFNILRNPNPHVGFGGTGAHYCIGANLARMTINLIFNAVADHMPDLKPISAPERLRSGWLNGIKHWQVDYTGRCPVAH
Description: biochemical.

For experiment [1], the target named is T2, CYP142 (Rv3518c) (Mycobacterium tuberculosis, UniProt P9WPL5).
T2 sequence (P9WPL5 1-398): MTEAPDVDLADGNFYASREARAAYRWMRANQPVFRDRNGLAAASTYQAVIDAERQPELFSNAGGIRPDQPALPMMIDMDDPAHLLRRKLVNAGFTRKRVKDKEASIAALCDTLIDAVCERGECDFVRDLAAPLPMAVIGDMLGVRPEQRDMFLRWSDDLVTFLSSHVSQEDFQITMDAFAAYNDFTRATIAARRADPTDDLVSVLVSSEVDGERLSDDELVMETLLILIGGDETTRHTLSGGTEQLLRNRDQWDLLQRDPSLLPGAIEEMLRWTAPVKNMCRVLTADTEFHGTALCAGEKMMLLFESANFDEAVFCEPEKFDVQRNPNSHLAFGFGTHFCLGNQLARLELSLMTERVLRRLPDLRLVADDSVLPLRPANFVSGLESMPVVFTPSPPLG
Description: biochemical. Format: binding.

The next experiment addresses T3, CYP124 (Mycobacterium tuberculosis, UniProt P9WPP3).
T3 sequence (P9WPP3 1-428): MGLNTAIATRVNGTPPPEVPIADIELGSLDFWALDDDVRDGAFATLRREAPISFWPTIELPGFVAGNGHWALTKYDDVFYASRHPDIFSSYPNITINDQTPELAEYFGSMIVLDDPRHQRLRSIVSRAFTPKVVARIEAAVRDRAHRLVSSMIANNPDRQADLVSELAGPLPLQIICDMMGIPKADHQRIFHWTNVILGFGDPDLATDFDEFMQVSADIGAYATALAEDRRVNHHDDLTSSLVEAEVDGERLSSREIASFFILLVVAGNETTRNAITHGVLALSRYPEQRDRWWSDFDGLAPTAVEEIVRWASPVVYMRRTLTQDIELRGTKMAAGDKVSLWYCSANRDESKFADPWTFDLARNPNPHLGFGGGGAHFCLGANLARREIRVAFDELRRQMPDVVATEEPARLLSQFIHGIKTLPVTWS
The experiment in a line: biochemical.

In experiment [2] the target is T4, CYP142 (Rv3518c) (Mycobacterium tuberculosis, UniProt P9WPL5). As to conditions: read-out: Kdapp ± SE (μM) / CYP142; binder.
Experiment [3] addresses T4, CYP142 (Rv3518c). The experiment in a line: biochemical.

Molecules are shown by their SMILES. Like-named read-outs stand apart in the source and are kept apart here.

For the compound `CCOC(=O)CCCCCCn1ccnc1` [CHImi], the Kd at CYP125 is 31 ± 4 µM; at CYP142 (Rv3518c) [1], 3.73 ± 0.19 µM; at CYP124, 1.45 ± 0.08 µM.
Take `CC(C)CCC[C@@H](C)[C@H]1CC[C@H]2[C@@H]3[C@@H](O)CC4=CC(=O)CC[C@]4(C)[C@H]3CC[C@]12C` [7βOHC-one]: the Kd on CYP142 (Rv3518c) [2] came out at 27 ± 8 µM; at CYP125 (read-out: Kdapp ± SE (μM) / CYP125, binder) it was 26 ± 3 µM; at CYP124 (read-out: Kdapp ± SE (μM) / CYP124, binder), 13.2 ± 1.7 µM.
For `CC(C)CCC[C@@H](C)[C@H]1CC[C@H]2[C@@H]3[C@@H](O)C=C4C[C@@H](O)CC[C@]4(C)[C@H]3CC[C@]12C` [7βOHC], the Kd on CYP125 was found to be 13 ± 2 µM; on CYP142 (Rv3518c) [3], 6 ± 1.4 µM; at CYP124 it was 11.1 ± 1.3 µM.
On to `CC(C)CCC[C@@H](C)[C@H]1CC[C@H]2[C@@H]3CCC4=CC(=O)CC[C@]4(C)[C@H]3CC[C@]12C` [Cholestenone], for which the values for the Kd on CYP125 and at CYP124 were 10.8 ± 1.8 µM and 3.4 ± 0.6 µM, respectively.
With `Cc1cc(CCC(C)C)ccc1NC=NO` [cpd5', N′-hydroxy-N-(4-isopentyl-2-methylphenyl)formimidamide], the Kd at CYP125 worked out at 16 ± 5 µM; on CYP142 (Rv3518c) [1] it was 0.17 ± 0.06 µM; on CYP124, 1.93 ± 0.16 µM.
On to `CC(C)CCC[C@@H](C)[C@H]1CC[C@H]2[C@@H]3C(=O)C=C4C[C@@H](O)CC[C@]4(C)[C@H]3CC[C@]12C` [7ketoC], for which the Kd at CYP125 is 12.4 ± 1.7 µM; on CYP142 (Rv3518c) [3] it was 4.3 ± 0.8 µM; at CYP124, 6.5 ± 0.8 µM.
On to `O=C(O)CCCCCCCn1ccnc1` [ChpImi], for which the figures for the Kd at CYP125, at CYP142 (Rv3518c) [1] and at CYP124 were 1.61 ± 0.03 µM, 31 ± 3 µM and 3.1 ± 0.5 µM, respectively.

For the origin of these results see publication doi:10.1101/2020.07.07.192294v1 (biorxiv, 2020).
